We go through 16 compounds from US6953812B2, “Glucagon antagonists/inverse agonists” (Novo Nordisk, Inc., priority 2000, dated 2005).

One assay deals with T1, human glucagon receptor (Homo sapiens, UniProt P47871).
T1 construct: expressed in transfected cells; host or cells: BHK (baby hamster kidney) cells, membrane preparation
Kind of assay: Glucagon Binding Assay (II). As to the method:
Glucagon Binding Assay (II)
BHK (baby hamster kidney cell line) cells are transfected with the human glucagon receptor and a membrane preparation of the cells is prepared.
All steps in the membrane preparation are kept on ice or performed at 4° C. BHK cells are harvested and centrifuged. The pellet is resuspended in homogenisation buffer (25 mM HEPES, pH=7.4, 2.5 mM CaCl2, 1.0 mM MgCl2, 250 mg/L bacitracin, 0.1 mM Pefabloc), homogenised 2×10 sec using Polytron 10-35 homogenizer (Kinematica) and added the same amount of homogenisation buffer as used for resuspension. After centrifugation (15 min at 2000×g) the supernatant is transferred to cold centrifuge tubes and centrifuged for 45 min at 40.000×g. The pellet is resuspended in homogenisation buffer, homogenised 2×10 sec (Polytron) and additional homogenisation buffer is added. The suspension is centrifuged for 45 min at 40.000×g and the pellet is resuspended in resuspension buffer (25 mM HEPES, pH=7.4, 2.5 mM CaCl2, 1.0 mM MgCl2) and homogenised 2×10 sec. (Polytron). […] Stabilisation buffer (25 mM HEPES, pH=7.4, 2.5 mM CaCl2, 1.0 mM MgCl2, 1% bovine serum albumin, 500 mg/L bacitracin, 2.5 M sucrose) is added and the membrane preparation is stored at −80° C.
The glucagon binding assay is carried out in opti plates (Polystyrene Microplates, Packard). 50 μL assay buffer (25 mM HEPES, pH=7.5, 2.5 mM CaCl2, 1.0 mM MgCl2, 0.003% Tween-20, 0.005% bacitracin, 0.05% sodium azide) and 5 μL glucagon or test compound (in DMSO) are added to each well. […] Finally 50 μL WGA beads containing 1 mg beads are transferred to the well. The opti plates are incubated for 4 hours on a shaker and then settled for 8-48 hours. The opti plates are counted in a Topcounter. Non-specific binding is determined with 500 nM of glucagon.

The target in a further assay is T2, human GIP receptor (Homo sapiens, UniProt P48546).
T2 construct: expressed in transfected cells; host or cells: BHK (baby hamster kidney) cells, membrane preparation
T2 sequence (P48546 22-466): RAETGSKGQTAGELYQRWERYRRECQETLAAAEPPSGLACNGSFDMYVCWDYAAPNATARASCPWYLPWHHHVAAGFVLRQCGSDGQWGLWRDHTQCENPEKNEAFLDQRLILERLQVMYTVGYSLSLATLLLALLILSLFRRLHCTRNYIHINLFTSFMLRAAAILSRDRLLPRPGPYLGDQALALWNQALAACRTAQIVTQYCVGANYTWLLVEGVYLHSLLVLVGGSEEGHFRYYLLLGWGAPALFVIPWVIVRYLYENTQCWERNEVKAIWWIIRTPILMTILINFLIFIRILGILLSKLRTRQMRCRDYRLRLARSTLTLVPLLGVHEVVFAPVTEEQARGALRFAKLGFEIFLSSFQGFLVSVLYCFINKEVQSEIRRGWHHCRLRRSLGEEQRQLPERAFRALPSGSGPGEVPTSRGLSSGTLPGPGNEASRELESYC
The assay can be described thus: GIP Binding Assay. To be noted: membranes of BHK cells transfected with human GIP receptor, 125I-GIP, SPA; read-out: GIP Bd Assay IC50. As to the method:
BHK (baby hamster kidney cell line) cells are transfected with the human GIP receptor and a membrane preparation of the cells is prepared.
All steps in the membrane preparation are kept on ice or performed at 4° C. BHK cells are harvested and centrifuged. The pellet is resuspended in homogenisation buffer (25 mM) HEPES, pH=7.4, 2.5 mM CaCl2, 1.0 mM MgCl2, 250 mg/L bacitracin, 0.1 mM Pefabloc), homogenised 2×10 sec using Polytron 10-35 homogenizer (Kinematica) and added the same amount of homogenisation buffer as used for resuspension. After centrifugation (15 min at 2000×g) the supernatant is transferred to cold centrifuge tubes and centrifuged for 45 min at 40.000×g. The pellet is resuspended in homogenisation buffer, homogenised 2×10 sec (Polytron) and additional homogenisation buffer is added. The suspension is centrifuged for 45 min at 40.000×g and the pellet is resuspended in resuspension buffer (25 mM HEPES, pH=7.4, 2.5 mM CaCl2, 1.0 mM MgCl2) and homogenised 2×10 sec. (Polytron). […] Stabilisation buffer (25 mM HEPES, pH=7.4, 2.5 mM CaCl2, 1.0 mM MgCl2, 1% bovine serum albumin, 500 mg/L bacitracin, 2.5 M sucrose) is added and the membrane preparation is stored at −80° C.
The GIP binding assay is carried out in opti plates (Polystyrene Microplates, Packard). 50 μL assay buffer (25 mM HEPES, pH=7.5, 2.5 mM CaCl2, 1.0 mM MgCl2, 0.003% Tween-20, 0.005% bacitracin, 0.05% sodium azide) and 5 μL GIP or test compound (in DMSO) are added to each well. […] Finally 50 μL WGA beads containing 1 mg beads are transferred to the well. The opti plates are incubated for 3.5 hours on a shaker and then settled for 8-48 hours. The opti plates are counted in a Top-counter. Non-specific binding is determined with 500 nM of GIP.

The mark [1] stands for this setting: membranes of BHK cells transfected with human glucagon receptor, 125I-glucagon, SPA, read-out: Glu Bd Assay (II) IC50.

pIC50: −log10 of the molar value. Read-outs that look alike come from different tables or passages of the source.

T1 sequence (P47871 26-477): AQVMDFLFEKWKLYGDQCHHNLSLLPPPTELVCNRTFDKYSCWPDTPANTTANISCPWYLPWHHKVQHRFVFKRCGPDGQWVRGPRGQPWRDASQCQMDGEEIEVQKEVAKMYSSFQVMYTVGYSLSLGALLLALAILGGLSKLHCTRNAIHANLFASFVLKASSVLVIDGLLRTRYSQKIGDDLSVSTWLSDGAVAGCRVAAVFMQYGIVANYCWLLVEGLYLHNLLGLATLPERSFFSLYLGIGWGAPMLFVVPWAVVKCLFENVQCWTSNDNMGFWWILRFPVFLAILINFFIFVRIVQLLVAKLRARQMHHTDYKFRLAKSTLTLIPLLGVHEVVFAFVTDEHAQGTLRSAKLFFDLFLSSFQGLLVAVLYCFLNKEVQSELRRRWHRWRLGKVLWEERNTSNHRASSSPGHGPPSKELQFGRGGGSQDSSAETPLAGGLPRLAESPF

With `O=C(NC[C@@H](O)C(=O)O)c1ccc(CN(CC(c2ccccc2)c2ccccc2)C(=O)c2csc3ccc(Cl)cc23)cc1` [Example 59, (R)-3-(4-{[(5-Chlorobenzo[b]thiophene-3-carbonyl)-(2,2-diphenylethyl)amino]methyl}benzoylamino)-2-hydroxypropionic acid], the negative-log IC50 (pIC50) was 6.23 on human glucagon receptor (setting [1]) and below 5.52 at human GIP receptor.
Taken in the same sequence, the figures for `O=C(NC[C@@H](O)C(=O)O)c1ccc(CN(C(=O)Nc2cc(Cl)cc(Cl)c2)c2ccc(C3=CCCCC3)cc2)cc1` [Example 19, (R)-3-{4-[1-(4-Cyclohex-1-enylphenyl)-3-(3,5-dichlorophenyl)ureidomethyl]benzoylamino}-2-hydroxypropionic acid] were 7.82 and 6.04.
For the compound `N#Cc1ccc(NC(=O)N(Cc2ccc(C(=O)NC[C@@H](O)C(=O)O)cc2)c2ccc(C3CCCCC3)cc2)cc1C(F)(F)F` [Example 37, (R)-3-{4-[3-(4-Cyano-3-trifluoromethylphenyl)-1-(4-cyclohexylphenyl)ureidomethyl]benzoyl-amino}-2-hydroxypropionic Acid], the figures for the pIC50 at human glucagon receptor (setting [1]) and at human GIP receptor were 7.72 and 6.28, respectively.
For the compound `O=C(NC[C@@H](O)C(=O)O)c1ccc(CN(C(=O)Cc2cc(F)cc(C(F)(F)F)c2)c2ccc(C3CCCCC3)cc2)cc1` [Example 65, (R)-3-[4-({(4-Cyclohexylphenyl)-[(3-fluoro-5-trifluoromethylphenyl)acetyl]amino}methyl)benzoylamino]-2-hydroxypropionic acid], the pIC50 is 6.28 at human glucagon receptor (setting [1]) and below 5.52 on human GIP receptor.
On to `O=C(NC[C@@H](O)C(=O)O)c1ccc(CN(CC(c2ccccc2)c2ccccc2)C(=O)Cc2cc(F)cc(C(F)(F)F)c2)cc1` [Example 58, (R)-3-[4-({(2,2-Diphenylethyl)-[2-(3-fluoro-5-trifluoromethylphenyl)acetyl]amino}methyl)benzoylamino]-2-hydroxypropionic acid], for which the negative-log IC50 (pIC50) at human glucagon receptor (setting [1]) is 6.02; on human GIP receptor it was below 5.52.
Regarding `O=C(NC[C@@H](O)C(=O)O)c1ccc(CN(C(=O)Cc2ccc(Cl)c(Cl)c2)c2ccc(C3CCCCC3)cc2)cc1` [Example 68, (R)-3-[4-({(4-Cyclohexylphenyl)-[(3,4-dichlorophenyl)acetyl]amino}methyl)benzoylamino]-2-hydroxypropionic acid], the pIC50 on human glucagon receptor is 6.28; at human GIP receptor, below 5.52.
In the case of `O=C(NC[C@@H](O)C(=O)O)c1ccc(CN(C(=O)Nc2ccc(OC(F)(F)F)cc2)c2ccc(C3CCCCC3)cc2)cc1` [Example 4, (R)-3-{4-[1-(4-Cyclohexylphenyl)-3-(4-trifluoromethoxyphenyl)ureidomethyl]benzoylamino}-2-hydroxypropionic acid], the pIC50 was 7.64 at human glucagon receptor (setting [1]) and 6.91 at human GIP receptor.
`O=C(NC[C@@H](O)C(=O)O)c1ccc(CN(C(=O)Nc2cccc(Br)c2)c2ccc(C3=CCCCC3)cc2)cc1` [Example 11, (R)-3-{4-[3-(3-Bromophenyl)-1-(4-cyclohex-1-enylphenyl)ureidomethyl]benzoylamino}-2-hydroxypropionic acid]: the pIC50 at human glucagon receptor (setting [1]) is 7.39; at human GIP receptor, 6.04.
Regarding `N#Cc1cc(NC(=O)N(Cc2ccc(C(=O)NC[C@@H](O)C(=O)O)cc2)c2ccc(C3=CCCCC3)cc2)cc(C(F)(F)F)c1` [Example 7, (R)-3-{4-[3-(3-Cyano-5-trifluoromethylphenyl)-1-(4-cyclohex-1-enylphenyl)ureidomethyl]benzoylamino}-2-hydroxypropionic acid], the negative logarithm of the IC50 (pIC50) was 7.59 at human glucagon receptor (setting [1]) and 6.53 at human GIP receptor.
Taken in the same sequence, the figures for `CC(C)(C)C1CCC(N(Cc2ccc(C(=O)NC[C@@H](O)C(=O)O)cc2)C(=O)Cc2ccc(OC(F)(F)F)cc2)CC1` (stereo partly drawn) [Example 56, (R)-3-[4-({(4-tert-Butylcyclohexyl)-[2-(4-trifluoromethoxyphenyl)acetyl]amino}methyl)benzoylamino]-2-hydroxypropionic acid] were 6.64 and 5.86.
With `O=C(NC[C@@H](O)C(=O)O)c1ccc(CN(C(=O)Nc2ccc(SC(F)(F)F)cc2)c2ccc(C3CCCCC3)cc2)cc1` [Example 24, (R)-3-{4-[1-(4-Cyclohexylphenyl)-3-(4-trifluoromethylsulfanylphenyl)ureidomethyl]benzoylamino}-2-hydroxypropionic acid], the pIC50 on human glucagon receptor (setting [1]) was 8.36; at human GIP receptor it was 7.43.
As for `COc1cc(NC(=O)N(Cc2ccc(C(=O)NC[C@@H](O)C(=O)O)cc2)c2ccc(C3CCCCC3)cc2)cc(C(F)(F)F)c1` [Example 1, (R)-3-{4-[1-(4-Cyclohexylphenyl)-3-(3methoxy-5-trifluoromethylphenyl)ureidomethyl]benzoylamino}-2-hydroxypropionic acid], the negative logarithm of the IC50 (pIC50) at human glucagon receptor (setting [1]) was 7.54; at human GIP receptor, 6.15.
For `O=C(NC[C@@H](O)C(=O)O)c1ccc(CN(C(=O)Cc2cccc(Br)c2)c2ccc(C3CCCCC3)cc2)cc1` [Example 69, (R)-3-(4-{[[(3-Bromophenyl)acetyl]-(4-cyclohexylphenyl)amino]methyl}benzoylamino)-2-hydroxypropionic acid], the pIC50 at human glucagon receptor (setting [1]) was 6.37; on human GIP receptor, below 5.52.
Turning to `O=C(NC[C@@H](O)C(=O)O)c1ccc(CN(C(=O)Nc2ccc(F)c([N+](=O)[O-])c2)c2ccc(C3CCCCC3)cc2)cc1` [Example 50, (R)-3-{4-[1-(4-Cyclohexylphenyl)-3-(4-fluoro-3-nitrophenyl)ureidomethyl]benzoylamino}-2-hydroxypropionic acid], the values for the pIC50 on human glucagon receptor (setting [1]) and on human GIP receptor were 6.92 and below 5.52, respectively.
For `O=C(NC[C@@H](O)C(=O)O)c1ccc(CN(C(=O)Nc2ccc3c(c2)C(F)(F)OC(F)(F)O3)c2ccc(C3CCCCC3)cc2)cc1` [Example 43, (R)-3-{4-[1-(4-Cyclohexylphenyl)-3-(2,2,4,4-tetrafluoro-4H-benzo[1,3]dioxin-6-yl)ureidomethyl]benzoylamino}-2-hydroxypropionic acid], the pIC50 on human glucagon receptor (setting [1]) is 7.77; at human GIP receptor, 6.65.
Take `CC(C)(C)c1ccc(N(Cc2ccc(C(=O)NC[C@@H](O)C(=O)O)cc2)C(=O)Nc2ccc(Cl)c(Cl)c2)cc1` [Example 40, (R)-3-{4-[1-(4-tert-butylphenyl)-3-(3,4-dichlorophenyl)ureidomethyl]benzoylamino}-2-hydroxypropionic acid]: the results for the negative logarithm of the IC50 (pIC50) on human glucagon receptor (setting [1]) and on human GIP receptor were 6.97 and 6.10, respectively.

One may read the pIC50 as the IC50 on a negative log10 scale, so that one unit is a factor of ten.
